Results: PubChem BioAssay (NCI)
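Cultured in 96-well plates, cells were exposed to test compound for 48 hours across five concentrations. GI50: concentration for 50% inhibition of growth. At the TGI there is no net growth.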

Assays:
Assay in all cases: NCI anticancer screen, dose series, 48 h
A498 renal = tested on: A498 renal
MDA-MB-231 breast = tested on: MDA-MB-231 breast
KM12 colon = tested on: KM12 colon
HCT-116 colon = tested on: HCT-116 colon
NCI-H226 lung = tested on: NCI-H226 lung
K-562 leukemia = tested on: K-562 leukemia
MOLT-4 leukemia = tested on: MOLT-4 leukemia
LOX IMVI melanoma = tested on: LOX IMVI melanoma
SN12C renal = tested on: SN12C renal
COLO 205 colon = tested on: COLO 205 colon
NCI-H522 lung = tested on: NCI-H522 lung
HS 578T breast = tested on: HS 578T breast
HL-60(TB) leukemia = tested on: HL-60(TB) leukemia

SMILES | TGI (A498 renal) | TGI (MDA-MB-231 breast) | TGI (KM12 colon) | TGI (HCT-116 colon) | TGI (NCI-H226 lung) | TGI (K-562 leukemia) | TGI (MOLT-4 leukemia) | TGI (LOX IMVI melanoma) | TGI (SN12C renal) | TGI (COLO 205 colon) | TGI (NCI-H522 lung) | TGI (HS 578T breast) | TGI (HL-60(TB) leukemia) | GI50 (A498 renal) | GI50 (MDA-MB-231 breast) | GI50 (KM12 colon) | GI50 (SN12C renal) | GI50 (K-562 leukemia) | GI50 (HL-60(TB) leukemia)
N#CC1C(=O)Nc2sc(C(=O)c3ccc(Br)cc3)c(N)c2C12CCCCC2 (stereo not given) | 63.6 µM | 67.7 µM | 44.1 µM | > 100 µM | 80.8 µM | > 100 µM | > 100 µM | > 100 µM | > 100 µM | 40.1 µM | 78.8 µM |  |  |  |  |  |  |  | 
CC1(C)OCC2OC3([C@H](O)CCO)OC(C)(C)OC3C2O1 (stereo not given in full) | > 100 µM | > 100 µM | > 100 µM | > 100 µM | > 100 µM | > 100 µM | > 100 µM | > 100 µM | > 100 µM | > 100 µM |  |  |  |  |  |  |  |  | 
Cn1c(C(C#N)c2cc(Cl)ncn2)nc2ccccc21 (stereo not given) | > 100 µM | > 100 µM | > 100 µM | > 100 µM | > 100 µM |  | > 100 µM | > 100 µM | > 100 µM | > 100 µM | > 100 µM |  |  |  |  |  |  |  | 
OC1C(O)C(O)C(O)C(O)C1O (stereo not given) | > 1000 µM | > 1000 µM |  | > 1000 µM | > 1000 µM | > 1000 µM | 916 µM | > 1000 µM | > 1000 µM | > 1000 µM |  | > 1000 µM |  |  |  |  |  |  | 
CC12O[C@H](c3ccccc3)[C@H](c3ccccc3)N1C(=O)C1(C(=O)OCc3ccccc3)CC12 (stereo not given in full) | > 100 µM |  | > 100 µM | > 100 µM | > 100 µM | > 100 µM | 63.2 µM | > 100 µM | > 100 µM | > 100 µM | > 100 µM |  | > 100 µM |  |  |  |  |  | 
Cc1cccc(-c2cc(=O)c3ccc(C)nc3[nH]2)c1 | > 51.1 µM | 5.87 µM | 20.5 µM | > 20.4 µM | 26.8 µM | > 100 µM | > 80.6 µM | > 100 µM | > 100 µM | 4.06 µM | 0.75 µM |  | 0.526 µM |  |  |  |  |  | 
NC(=O)N/N=C(\Cc1nc2ccc(C(=O)c3ccccc3)cc2[nH]c1=O)C(=O)Nc1ccc(Br)cc1 | > 100 µM |  | > 100 µM | > 100 µM | > 100 µM | > 100 µM | > 100 µM | > 100 µM | > 100 µM |  | > 100 µM |  | > 100 µM |  |  |  |  |  | 
O=c1c2cc(Br)ccc2oc2nc3n(c(=O)c12)CCCS3 | > 100 µM | > 100 µM | > 100 µM | > 100 µM | > 100 µM | > 100 µM | > 100 µM | > 100 µM | > 100 µM | > 100 µM | > 100 µM | > 100 µM |  |  |  |  |  |  | 
COC(=O)C(NC(=O)CNC(=O)CSc1nnc(COc2ccc(Cl)cc2)n1-c1ccccc1)C(C)C (stereo not given) | 56.7 µM | 36.5 µM | 35.4 µM | 31.4 µM | 38.3 µM | > 100 µM | > 100 µM | 50 µM | 35.9 µM | 34.1 µM | 19.3 µM | 62.9 µM |  |  |  |  |  |  | 
C[n+]1c2ccccc2c(CNC(CCC(N)=O)C(=O)O)c2ccccc21 (stereo not given) | 6.93 µM |  | 9 µM | 1.21 µM | 18.3 µM | 6.51 µM | 10 µM | 6.64 µM | 7.36 µM | 2.14 µM | 3.18 µM | 21.8 µM | 7.65 µM |  |  |  |  |  | 
OCCSCCCSCCO |  | > 100 µM | > 100 µM | > 100 µM |  | > 100 µM | > 100 µM | > 100 µM | > 100 µM | > 100 µM | > 100 µM |  | 80.7 µM |  |  |  |  |  | 
CC(=O)NNc1nc(C)c(C(/C=C/c2ccc(Cl)cc2)=N\NS(=O)(=O)c2ccc(C)cc2)s1 | > 100 µM |  | > 100 µM | > 100 µM | > 100 µM | > 100 µM | > 100 µM | > 100 µM | > 100 µM | > 100 µM | > 100 µM |  | > 100 µM |  |  |  |  |  | 
CN1N=C2c3ccccc3CC[C@H]2C1c1ccccc1 (stereo not given in full) | > 100 µM |  | > 100 µM | > 100 µM | > 100 µM | > 100 µM | > 100 µM | > 100 µM | > 100 µM | > 100 µM | 94.3 µM |  | > 100 µM |  |  |  |  |  | 
CN(C)CCNCc1c2ccccc2c(CNCCN(C)C)c2ccccc12 | 55.9 µM |  | > 100 µM | > 90.1 µM | 47 µM | > 100 µM | 8.31 µM | 38.7 µM | > 100 µM | 22.3 µM | > 100 µM |  | 46.8 µM |  |  |  |  |  | 
O=c1ccc2ccccc2o1 | > 100 µM |  | > 100 µM | > 100 µM | > 100 µM | > 100 µM | > 100 µM | > 100 µM | > 100 µM | > 100 µM | > 100 µM |  | > 100 µM |  |  |  |  |  | 
CN1CCN(CC(=O)Nc2ccc3ncnc(Nc4ccc(Oc5cccc(C(F)(F)F)c5)c(Cl)c4)c3c2)CC1 | 2.66 µM | 3.3 µM | 3.3 µM |  |  |  |  |  | 3.26 µM |  |  |  |  | 1.32 µM | 1.78 µM | 1.79 µM | 1.7 µM |  | 
CC1=C/C(=N/N2C(=O)/C(=C/c3ccc(Cl)cc3)N=C2c2ccccc2)CC(C)(C)C1 | > 100 µM | > 100 µM | > 100 µM | > 100 µM | > 100 µM | > 100 µM | > 100 µM | > 100 µM | > 100 µM | > 100 µM | > 100 µM | > 100 µM |  |  |  |  |  |  | 
Cc1ccc(NC(=O)CC(=O)n2nc(-c3ccccc3)c(N=Nc3ccc(Cl)cc3)c2-c2ccccc2)cc1 | > 100 µM |  | > 100 µM | 33.8 µM | > 100 µM | 47.1 µM | > 100 µM | 29.9 µM | > 100 µM | > 100 µM |  |  | 17.7 µM |  |  |  |  |  | 
CN(C)c1ccc(/C=C/c2sc3ccc4ccccc4c3[n+]2C)cc1 | 2.85 µM | 2.62 µM |  |  |  | > 100 µM |  |  | 3.43 µM |  |  |  | 1.18 µM | 0.539 µM | 0.526 µM |  | 0.359 µM | 0.199 µM | 0.33 µM
Cc1cc(Cc2cc(C)c(NC(=O)C(=O)C3C(=O)NC(=S)NC3=O)c(C(C)C)c2)cc(C(C)C)c1NC(=O)C(=O)C1C(=O)NC(=S)NC1=O | > 100 µM |  | > 100 µM | > 100 µM | > 100 µM | > 100 µM | > 100 µM | > 100 µM | > 100 µM | > 100 µM | > 100 µM |  | > 100 µM |  |  |  |  |  | 
